{"source": "patent US8969332B2", "about": "“Aryloxy dihalopropenyl ether compounds and uses thereof” (Sinochem Corporation, priority 2011, dated 2015)", "key": {"diamond back moth [1]": {"system": "diamond back moth", "test": "Insecticidal activity against diamond back moth in greenhouse (airbrush spraying of cabbage leaf discs)", "assay_type": "in vivo", "conditions": "Plutella xylostella, foliar, 72 h, read-out: Mortality of diamond back moth (%)", "experimental": "(§1) Compounds were dissolved in mixed solvent (acetone:methanol=1:1), and diluted to required concentration with water containing 0.1% of tweed 80.\n(§2) The method of spraying by airbrush: The cabbage leaves were made into plates of 2 cm diameter by use of punch. A test solution (0.5 ml) was sprayed by airbrush at the pressure of 0.7 kg/cm^2 to both sides of every plate. 10 Second instar larvae were put into the petri-dishes after the leaf disc air-dried and 3 replicates were set for each treatment. Then the insects were maintained in observation room (25° C., 60˜70% R.H.), Scores were conducted and mortalities were calculated after 72 h."}, "armyworm": {"system": "armyworm", "test": "Insecticidal activity against armyworm in greenhouse (airbrush spraying of corn leaf discs)", "assay_type": "in vivo", "conditions": "72 h; for control of the armyworm: 600 mg/L; for Mortality of armyworm (%) / mortality at 10 µg/mL / mortality at 100 µg/mL: parallel determination; for mortality at 10 µg/mL / mortality at 100 µg/mL: Mythimna separata, foliar", "experimental": "as §1\nas §2, with “corn” for “cabbage”, “Petri-dishes” for “petri-dishes”, “thr” for “for”, “R.H.).” for “R.H.),”"}, "Prodenia litura": {"system": "Prodenia litura", "conditions": "500 ppm; cited from earlier work"}, "Heliothis virescens": {"system": "Heliothis virescens", "conditions": "100 ppm; cited from earlier work"}, "housefly": {"system": "housefly", "test": "Insecticidal activity against housefly (diet incorporation test)", "assay_type": "in vivo", "conditions": "Musca domestica, 72 h, read-out: Mortality of housefly (%)", "experimental": "Diet Incorporation Tests: the test compound was dissolved with 90% acetone to obtain the mother liquor after weigh accurately with an electronic balance. The required concentration solution was got by diluting to the mother liquor with a certain concentration milk powder solution according to the designed doses in the experiment. Then, the diluted concentration solution was evenly put into the petri dishes with diameter of 6 cm inside which filter paper was placed by using a transferring-liquid gun ([…], solution each petri dish). Finally the 3rd instars of larvae were put into petri dishes with 10 each petri dish, and 3 replicates were set for each treatment. Then the insects were maintained in observation room (25° C., 60˜70% R.H.). Scores were conducted and mortalities were calculated after 72 h."}, "[2]": {"system": "cabbage butterfly (Pierisrapae Linne)", "test": "Field trial against cabbage butterfly", "assay_type": "in vivo", "conditions": "105 g a.i./hm^2, 10% EC", "experimental": "(§3) Calculation Method: Decrease rate of insects (%)=(the number of insects before application−the number of insects after application) the number of insects before application×100 Control efficacy (%)=(decrease rate of insects in treated area decrease rate of insects in blank comparative area)/(100−decrease rate of insects in blank comparative area)×100\nThe trial was carried out in a farmer's vegetable field in Xiangcheng District Suzhou City. The variety of the cabbage is Xinxia 50. The dosage of the compound 1 are 75, 105, 150 g a.i./hm^2 and the comparative agent pyridalyl is 105 g a.i./hm^2. The agent was applied on 26 May 2011. The application tool is Singaporean Linong HD-400 type backpack spray. Evenly spraying to whole cabbage which is at vegetative growth phase was conducted, Cabbage butterfly is at a peak time of 1-3 instars of larvae. The plot area is 15 m^2, 4 replicates and randomized block arrangement were set. The amount of spray liquid is 750 L/hm^2. It was from sunny to cloudy with the highest temperature of 22.6° C., and the lowest of 17.8° C. on the day of the application of the spray. Chosen 10 plants from each plot and scored the larvae at different instars at fixing time. The base number was investigated before treatment. The number of living larvae was counted after 1 day, 4 days, 7 days and 12 days respectively after application and control efficacy was calculated.\nCalculation method: the same as Example 13."}, "beet armyworm [3]": {"system": "beet armyworm", "test": "Insecticidal activity against beet armyworm (24 well-plate artificial diet emulsion method)", "assay_type": "in vivo", "conditions": "Spodoptera exigua, 72 h, read-out: Mortality of beet armyworm (%)", "experimental": "as §1\n24 well-plate artificial diet emulsion method: artificial food was added to each well of the 24 well-plate, after the artificial food was cooled, the prepared solution were added into the 24 well-plate according to the experimental design by order of chemical concentrations from low to high, by gently shaking the even emulsion film can be formed on the surface of the diet. 24 neat and healthy larvae were put into the 24 well-plate (one larvae each well) after the film was air-dried and 3 replicates were set for each treatment. Then the insects were maintained in observation room (25° C., 60˜70% R.H.). Scores were conducted and mortalities were calculated after 72 h."}, "beet armyworm [4]": {"system": "beet armyworm", "test": "Field trial against beet armyworm on cabbage", "assay_type": "in vivo, Laphygma exigua", "conditions": "105 g a.i./hm^2, 10% EC", "experimental": "The trial was carried out in rain shelter area of experimental field of Wuhan vegetable research institute, the test crop is cabbage (variety: Jingfeng NO. 1). The dosage of the invention compound 1 (Example 11, 10% EC, same as below) are 75, 105, 150 g a.i./hm^2. and the comparative agent pyridalyl (10% EC, commercially available, same as below) is 105 g a.i./hm^2. The agent was applied on 9 Oct. 2011. The application tool is Linong 16HD-400 type backpack spray. Evenly spraying to whole cabbage which is in rosette stage was conducted. Beet armyworm is mainly larvae. The plot area is 25 m^2 and 4 replicates and randomized block arrangement were set. The amount of spray liquid is 750 L/hm^2. It was sunny and there was no wind, with the highest temperature of 28° C. and the lowest of 15° C. on the day of the application. Chosen 10 plants from each plot and scored the larvae at different instars at fixing time. The base number was investigated before treatment. The number of living larvae was counted after 1 day, 3 days, 7 days and 14 days respectively after application and control efficacy was calculated.\nas §3"}, "diamond back moth [5]": {"system": "diamond back moth", "test": "Field trial against diamond back moth on cabbage", "assay_type": "in vivo, Plutella xylostella", "conditions": "105 g a.i./hm^2, 10% EC", "experimental": "as §3\nThe trial was carried out in the test filed of Shenyang Research Institute of Chemical industry Ltd. The trial crop is cabbage (Variety: Zhonggan NO 8.). The dosage of the compound 1 are 75, 105, 150 g a.i./hm^2 and comparative agent pyridalyl is 105 g a.i./hm^2. The agent was applied once on 13 Jun. 2011. The application tool is Shandongweishi WS-16P type backpack manual sprayer. Evenly spraying to whole cabbage which is in rosette stage was conducted. Diamond back moth is originated at the peak time. The plot area is 10 m^2, 3 replicates and randomized block arrangement were set. The amount of spray liquid is 750 L/hm^2. It was sunny with the highest temperature of 29° C., and the lowest of 17° C. on the day of the application of the spray. The methods of investigation and calculation are the same as Example 13."}, "[6]": {"conditions": "6.25 mg/L, parallel determination"}, "[7]": {"conditions": "25 mg/L, parallel determination"}, "[8]": {"conditions": "50 mg/L, parallel determination"}}, "note": "Where two headings read alike, the source gives them in different places."}
{"smiles": "FC(F)(F)c1cnc(Oc2ccc(OCCCOc3c(Cl)cc(OCC=C(Cl)Cl)cc3Cl)cc2)c(Cl)c1", "note": "[Compound 2]", "values": [{"measurement": "mortality at 6.25 µg/mL", "setting": "diamond back moth [1]; [6]", "result": 75, "unit": "%"}, {"measurement": "mortality at 25 µg/mL", "setting": "diamond back moth [1]; [7]", "result": 100, "unit": "%"}, {"measurement": "mortality at 50 µg/mL", "setting": "diamond back moth [1]; [8]", "result": 100, "unit": "%"}]}
{"smiles": "Fc1cc(Cl)cnc1Oc1ccc(OCCCOc2c(Cl)cc(OCC=C(Cl)Cl)cc2Cl)cc1", "note": "[Compound 3]", "values": [{"measurement": "control of the armyworm", "setting": "armyworm", "result": 100, "unit": "%"}]}
{"smiles": "ClC(Cl)=CCOc1cc(Cl)c(OCCCOc2ccc(Oc3nc(Cl)c(Cl)cc3Cl)cc2)c(Cl)c1", "note": "[Compound 11]", "values": [{"measurement": "control of the armyworm", "setting": "armyworm", "result": 100, "unit": "%"}]}
{"smiles": "ClC(Cl)=CCOc1cc(Cl)c(OCCCOc2ccc(Oc3ccccc3)cc2)c(Cl)c1", "note": "[Compound 38]", "values": [{"measurement": "control of the armyworm", "setting": "armyworm", "result": 100, "unit": "%"}]}
{"smiles": "CC(C)(C)n1ncc(Oc2ccc(OCCCOc3c(Cl)cc(OCC=C(Cl)Cl)cc3Cl)cc2)c(Cl)c1=O", "note": "[Compound 57]", "values": [{"measurement": "control of the armyworm", "setting": "armyworm", "result": 100, "unit": "%"}]}
{"smiles": "Fc1cccc(Cl)c1COc1ccc(OCCCOc2c(Cl)cc(OCC=C(Cl)Cl)cc2Cl)cc1", "note": "[Compound 72]", "values": [{"measurement": "control of the armyworm", "setting": "armyworm", "result": 100, "unit": "%"}]}
{"smiles": "ClC(Cl)=CCOc1cc(Cl)c(OCCCOc2ccc(OCc3cnc(Cl)s3)cc2)c(Cl)c1", "note": "[Compound 80]", "values": [{"measurement": "control of the armyworm", "setting": "armyworm", "result": 100, "unit": "%"}]}
{"smiles": "FC(F)(F)c1ccc(Oc2ccc(OCCCOc3ccc(OCC=C(Cl)Cl)cc3Cl)cc2)nc1", "note": "[Compound 83]", "values": [{"measurement": "control of the armyworm", "setting": "armyworm", "result": 100, "unit": "%"}]}
{"smiles": "FC(F)(F)c1cnc(Oc2ccc(OCCCOc3ccc(OCC=C(Cl)Cl)cc3Cl)cc2)c(Cl)c1", "note": "[Compound 84]", "values": [{"measurement": "control of the armyworm", "setting": "armyworm", "result": 100, "unit": "%"}]}
{"smiles": "FC(F)(F)c1ccc(Oc2ccc(OCCCOc3c(Cl)cc(OCC=C(Cl)Cl)c(Cl)c3Cl)cc2)nc1", "note": "[Compound 117]", "values": [{"measurement": "Mortality of armyworm (%)", "setting": "armyworm; 10 mg/L", "result": 100, "unit": "%"}, {"measurement": "Mortality of armyworm (%)", "setting": "armyworm; 100 mg/L", "result": 100, "unit": "%"}, {"measurement": "control of the armyworm", "setting": "armyworm", "result": 100, "unit": "%"}]}
{"smiles": "FC(F)(F)c1cnc(Oc2ccc(OCCCOc3c(Cl)cc(OCC=C(Cl)Cl)c(Cl)c3Cl)cc2)c(Cl)c1", "note": "[Compound 118]", "values": [{"measurement": "control of the armyworm", "setting": "armyworm", "result": 100, "unit": "%"}]}
{"smiles": "ClC(Cl)=CCOc1cc(Cl)c(OCCCOc2ccc(Oc3nc4ccc(Cl)cc4o3)cc2)c(Cl)c1", "note": "[Compound 219]", "values": [{"measurement": "control of the armyworm", "setting": "armyworm", "result": 100, "unit": "%"}, {"measurement": "mortality at 10 µg/mL", "setting": "armyworm; 10 mg/L", "result": 70, "unit": "%"}, {"measurement": "mortality at 100 µg/mL", "setting": "armyworm; 100 mg/L", "result": 100, "unit": "%"}]}
{"smiles": "FC(F)(F)c1cnc(Oc2ccc(OCCCOc3c(Cl)cc(OCC=C(Cl)Cl)cc3Cl)cc2Cl)c(Cl)c1", "note": "[Compound D-1, reference compound]", "values": [{"measurement": "control against Prodenia litura", "setting": "Prodenia litura", "result": "above 80%"}, {"measurement": "mortality at 6.25 µg/mL", "setting": "diamond back moth [1]; [6]", "result": 0, "unit": "%"}, {"measurement": "mortality at 25 µg/mL", "setting": "diamond back moth [1]; [7]", "result": 30, "unit": "%"}, {"measurement": "mortality at 50 µg/mL", "setting": "diamond back moth [1]; [8]", "result": 80, "unit": "%"}, {"measurement": "control on Heliothis virescens", "setting": "Heliothis virescens", "result": "above 80%"}, {"measurement": "mortality at 10 µg/mL", "setting": "armyworm; 10 mg/L", "result": 30, "unit": "%"}, {"measurement": "mortality at 100 µg/mL", "setting": "armyworm; 100 mg/L", "result": 90, "unit": "%"}]}
{"smiles": "FC(F)(F)c1ccc(OCCCOc2c(Cl)cc(OCC=C(Cl)Cl)cc2Cl)nc1", "note": "[Compound D-2, pyridalyl, reference compound]", "values": [{"measurement": "mortality at 10 µg/mL", "setting": "housefly", "result": 0, "unit": "%"}, {"measurement": "mortality at 20 µg/mL", "setting": "housefly", "result": 25, "unit": "%"}, {"measurement": "Control efficiency (%)", "setting": "[2]; 1 day after treatment", "result": 49.7, "unit": "%"}, {"measurement": "Control efficiency (%)", "setting": "[2]; 4 day after treatment", "result": 84.3, "unit": "%"}, {"measurement": "Control efficiency (%)", "setting": "[2]; 7 day after treatment", "result": 88.5, "unit": "%"}, {"measurement": "Control efficiency (%)", "setting": "[2]; 12 days after treatment", "result": 75.8, "unit": "%"}, {"measurement": "mortality at 2.5 µg/mL", "setting": "beet armyworm [3]", "result": 16.7, "unit": "%"}, {"measurement": "mortality at 10 µg/mL", "setting": "beet armyworm [3]", "result": 100, "unit": "%"}, {"measurement": "mortality at 6.25 µg/mL", "setting": "diamond back moth [1]", "result": 50, "unit": "%"}, {"measurement": "mortality at 25 µg/mL", "setting": "diamond back moth [1]", "result": 75, "unit": "%"}, {"measurement": "mortality at 50 µg/mL", "setting": "diamond back moth [1]", "result": 90, "unit": "%"}, {"measurement": "Control efficiency (%)", "setting": "beet armyworm [4]; 1 day after treatment", "result": 70.76, "unit": "%"}, {"measurement": "Control efficiency (%)", "setting": "beet armyworm [4]; 3 days after treatment", "result": 83.34, "unit": "%"}, {"measurement": "Control efficiency (%)", "setting": "beet armyworm [4]; 7 days after treatment", "result": 78.33, "unit": "%"}, {"measurement": "Control efficiency (%)", "setting": "beet armyworm [4]; 14 days after treatment", "result": 61.21, "unit": "%"}, {"measurement": "Control efficacy (%)", "setting": "diamond back moth [5]; 1 day after treatment", "result": 95.1, "unit": "%"}, {"measurement": "Control efficacy (%)", "setting": "diamond back moth [5]; 3 days after treatment", "result": 97.0, "unit": "%"}, {"measurement": "Control efficacy (%)", "setting": "diamond back moth [5]; 7 days after treatment", "result": 94.9, "unit": "%"}]}
